Assay results: PubChem BioAssay (NCI)
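Each compound was tested at five concentrations against cells in 96-well plates for 48 hours. TGI: concentration producing complete growth inhibition.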

Assays:
Assay in all cases: NCI tumour cell line growth inhibition, 48 h
SK-MEL-2 melanoma = tested on: SK-MEL-2 melanoma
HOP-92 NSCLC = tested on: HOP-92 NSCLC
NCI-H23 lung = tested on: NCI-H23 lung
DU-145 prostate = tested on: DU-145 prostate
K-562 leukemia = tested on: K-562 leukemia
UACC-257 melanoma = tested on: UACC-257 melanoma
HL-60(TB) leukemia = tested on: HL-60(TB) leukemia
ACHN renal = tested on: ACHN renal
MCF7 breast = tested on: MCF7 breast
HCT-116 colon = tested on: HCT-116 colon
OVCAR-8 ovarian = tested on: OVCAR-8 ovarian
NCI-H522 lung = tested on: NCI-H522 lung
SW-620 colon = tested on: SW-620 colon
SF-268 CNS = tested on: SF-268 CNS
U251 CNS = tested on: U251 CNS
NCI/ADR-RES ovarian = tested on: NCI/ADR-RES ovarian
OVCAR-4 ovarian = tested on: OVCAR-4 ovarian
SF-539 CNS = tested on: SF-539 CNS
A549 NSCLC = tested on: A549 NSCLC
MDA-N = tested on: MDA-N
UACC-62 melanoma = tested on: UACC-62 melanoma
A498 renal = tested on: A498 renal
CAKI-1 renal = tested on: CAKI-1 renal
SNB-19 CNS = tested on: SNB-19 CNS
HT29 colon = tested on: HT29 colon
NCI-H226 lung = tested on: NCI-H226 lung
RPMI-8226 leukemia = tested on: RPMI-8226 leukemia
786-0 renal = tested on: 786-0 renal
OVCAR-5 ovarian = tested on: OVCAR-5 ovarian
CCRF-CEM leukemia = tested on: CCRF-CEM leukemia
M14 melanoma = tested on: M14 melanoma
HOP-62 NSCLC = tested on: HOP-62 NSCLC
SNB-75 CNS = tested on: SNB-75 CNS
HS 578T breast = tested on: HS 578T breast
EKVX NSCLC = tested on: EKVX NSCLC
MOLT-4 leukemia = tested on: MOLT-4 leukemia
BT-549 breast = tested on: BT-549 breast
HCT-15 colon = tested on: HCT-15 colon
PC-3 prostate = tested on: PC-3 prostate
RXF 393 renal = tested on: RXF 393 renal
KM12 colon = tested on: KM12 colon
TK-10 renal = tested on: TK-10 renal
MDA-MB-231 breast = tested on: MDA-MB-231 breast
MALME-3M melanoma = tested on: MALME-3M melanoma
SR leukemia = tested on: SR leukemia
T-47D breast = tested on: T-47D breast
UO-31 renal = tested on: UO-31 renal
COLO 205 colon = tested on: COLO 205 colon
SK-MEL-28 melanoma = tested on: SK-MEL-28 melanoma
SK-MEL-5 melanoma = tested on: SK-MEL-5 melanoma
OVCAR-3 ovarian = tested on: OVCAR-3 ovarian
IGROV1 ovarian = tested on: IGROV1 ovarian
HCC-2998 colon = tested on: HCC-2998 colon
LOX IMVI melanoma = tested on: LOX IMVI melanoma
SF-295 CNS = tested on: SF-295 CNS
SN12C renal = tested on: SN12C renal
NCI-H460 lung = tested on: NCI-H460 lung
MDA-MB-435 = tested on: MDA-MB-435
SK-OV-3 ovarian = tested on: SK-OV-3 ovarian

CCN(CC)/[N+]([O-])=N/OCOC showed a TGI (SK-MEL-2 melanoma) of over 100 µM, a TGI (HOP-92 NSCLC) of over 100 µM and a TGI (NCI-H23 lung) of over 100 µM. It also gave a TGI (DU-145 prostate) of over 100 µM, a TGI (K-562 leukemia) of over 100 µM and a TGI (UACC-257 melanoma) of over 100 µM. For the same compound, the TGI (HL-60(TB) leukemia) was over 100 µM, the TGI (ACHN renal) was over 100 µM and the TGI (MCF7 breast) was over 100 µM. The TGI (HCT-116 colon) was over 100 µM, the TGI (OVCAR-8 ovarian) was over 100 µM and the TGI (NCI-H522 lung) was over 100 µM. It also gave a TGI (SW-620 colon) of over 100 µM, a TGI (SF-268 CNS) of over 100 µM and a TGI (U251 CNS) of over 100 µM. It also gave a TGI (NCI/ADR-RES ovarian) of over 100 µM, a TGI (OVCAR-4 ovarian) of over 100 µM and a TGI (SF-539 CNS) of over 100 µM. It also gave a TGI (A549 NSCLC) of over 100 µM, a TGI (MDA-N) of over 100 µM and a TGI (UACC-62 melanoma) of over 100 µM. It also gave a TGI (A498 renal) of over 100 µM, a TGI (CAKI-1 renal) of over 100 µM and a TGI (SNB-19 CNS) of over 100 µM. For the same compound, the TGI (HT29 colon) was over 100 µM, the TGI (NCI-H226 lung) was over 100 µM and the TGI (RPMI-8226 leukemia) was over 100 µM. For the same compound, the TGI (786-0 renal) was over 100 µM, the TGI (OVCAR-5 ovarian) was over 100 µM and the TGI (CCRF-CEM leukemia) was over 100 µM. The TGI (M14 melanoma) was over 100 µM, the TGI (HOP-62 NSCLC) was over 100 µM and the TGI (SNB-75 CNS) was over 100 µM. For the same compound, the TGI (HS 578T breast) was over 100 µM, the TGI (EKVX NSCLC) was over 100 µM and the TGI (MOLT-4 leukemia) was over 100 µM. For the same compound, the TGI (BT-549 breast) was over 100 µM, the TGI (HCT-15 colon) was over 100 µM and the TGI (PC-3 prostate) was over 100 µM. For the same compound, the TGI (RXF 393 renal) was over 100 µM, the TGI (KM12 colon) was over 100 µM and the TGI (TK-10 renal) was over 100 µM. It also gave a TGI (MDA-MB-231 breast) of over 100 µM, a TGI (MALME-3M melanoma) of over 100 µM and a TGI (SR leukemia) of over 100 µM. For the same compound, the TGI (T-47D breast) was over 100 µM, the TGI (UO-31 renal) was over 100 µM and the TGI (COLO 205 colon) was over 100 µM. For the same compound, the TGI (SK-MEL-28 melanoma) was over 100 µM, the TGI (SK-MEL-5 melanoma) was over 100 µM and the TGI (OVCAR-3 ovarian) was over 100 µM. For the same compound, the TGI (IGROV1 ovarian) was over 100 µM, the TGI (HCC-2998 colon) was over 100 µM and the TGI (LOX IMVI melanoma) was over 100 µM. The TGI (SF-295 CNS) was over 100 µM, the TGI (SN12C renal) was over 100 µM and the TGI (NCI-H460 lung) was over 100 µM. The TGI (MDA-MB-435) was over 100 µM and the TGI (SK-OV-3 ovarian) was over 100 µM.

With CSC1(C(=O)O)C2CCC3C2CCC31 (stereo unspecified) the TGI (SK-MEL-2 melanoma) was over 100 µM, the TGI (HOP-92 NSCLC) was over 100 µM and the TGI (NCI-H23 lung) was over 100 µM. It also gave a TGI (DU-145 prostate) of over 100 µM, a TGI (K-562 leukemia) of over 100 µM and a TGI (UACC-257 melanoma) of over 100 µM. It also gave a TGI (HL-60(TB) leukemia) of over 100 µM, a TGI (ACHN renal) of over 100 µM and a TGI (MCF7 breast) of over 100 µM. For the same compound, the TGI (HCT-116 colon) was over 100 µM, the TGI (OVCAR-8 ovarian) was over 100 µM and the TGI (NCI-H522 lung) was over 100 µM. For the same compound, the TGI (SW-620 colon) was over 100 µM, the TGI (SF-268 CNS) was over 100 µM and the TGI (U251 CNS) was over 100 µM. For the same compound, the TGI (NCI/ADR-RES ovarian) was over 100 µM, the TGI (OVCAR-4 ovarian) was over 100 µM and the TGI (SF-539 CNS) was over 100 µM. For the same compound, the TGI (A549 NSCLC) was over 100 µM, the TGI (MDA-N) was over 100 µM and the TGI (UACC-62 melanoma) was over 100 µM. The TGI (A498 renal) was over 100 µM, the TGI (CAKI-1 renal) was over 100 µM and the TGI (SNB-19 CNS) was over 100 µM. It also gave a TGI (HT29 colon) of over 100 µM, a TGI (NCI-H226 lung) of over 100 µM and a TGI (RPMI-8226 leukemia) of over 100 µM. It also gave a TGI (786-0 renal) of over 100 µM, a TGI (OVCAR-5 ovarian) of over 100 µM and a TGI (CCRF-CEM leukemia) of over 100 µM. The TGI (M14 melanoma) was over 100 µM, the TGI (HOP-62 NSCLC) was over 100 µM and the TGI (SNB-75 CNS) was over 100 µM. It also gave a TGI (HS 578T breast) of over 100 µM, a TGI (EKVX NSCLC) of over 100 µM and a TGI (MOLT-4 leukemia) of over 100 µM. For the same compound, the TGI (BT-549 breast) was over 100 µM, the TGI (HCT-15 colon) was over 100 µM and the TGI (PC-3 prostate) was over 100 µM. The TGI (RXF 393 renal) was over 100 µM, the TGI (KM12 colon) was over 100 µM and the TGI (TK-10 renal) was over 100 µM. For the same compound, the TGI (MDA-MB-231 breast) was over 100 µM, the TGI (MALME-3M melanoma) was over 100 µM and the TGI (SR leukemia) was over 100 µM. The TGI (T-47D breast) was over 100 µM, the TGI (UO-31 renal) was over 100 µM and the TGI (COLO 205 colon) was over 100 µM. It also gave a TGI (SK-MEL-28 melanoma) of over 100 µM, a TGI (SK-MEL-5 melanoma) of over 100 µM and a TGI (OVCAR-3 ovarian) of over 100 µM. For the same compound, the TGI (IGROV1 ovarian) was over 100 µM, the TGI (HCC-2998 colon) was over 100 µM and the TGI (LOX IMVI melanoma) was over 100 µM. For the same compound, the TGI (SF-295 CNS) was over 100 µM, the TGI (SN12C renal) was over 100 µM and the TGI (NCI-H460 lung) was over 100 µM. It also gave a TGI (MDA-MB-435) of over 100 µM and a TGI (SK-OV-3 ovarian) of over 100 µM.

CC(=O)N1C(CCc2ccccc2)CC(C)(C=O)C1Cc1ccc(O[Si](C(C)C)(C(C)C)C(C)C)cc1 (stereo unspecified) showed a TGI (SK-MEL-2 melanoma) of 8.02 µM, a TGI (HOP-92 NSCLC) of 23.7 µM and a TGI (NCI-H23 lung) of 24.3 µM. For the same compound, the TGI (DU-145 prostate) was 18.9 µM, the TGI (K-562 leukemia) was over 26.1 µM and the TGI (UACC-257 melanoma) was 10.6 µM. For the same compound, the TGI (HL-60(TB) leukemia) was 4.42 µM, the TGI (ACHN renal) was 18.8 µM and the TGI (MCF7 breast) was 5.26 µM. It also gave a TGI (HCT-116 colon) of 9.03 µM, a TGI (OVCAR-8 ovarian) of 18.6 µM and a TGI (NCI-H522 lung) of 5.95 µM. The TGI (SW-620 colon) was 14.4 µM, the TGI (SF-268 CNS) was 15.8 µM and the TGI (U251 CNS) was 13.3 µM. For the same compound, the TGI (NCI/ADR-RES ovarian) was 31.1 µM, the TGI (OVCAR-4 ovarian) was 16.8 µM and the TGI (SF-539 CNS) was 6.03 µM. It also gave a TGI (A549 NSCLC) of 15.2 µM, a TGI (MDA-N) of 6.4 µM and a TGI (UACC-62 melanoma) of 16.3 µM. It also gave a TGI (A498 renal) of 14.3 µM, a TGI (CAKI-1 renal) of 11.2 µM and a TGI (SNB-19 CNS) of 18.1 µM. It also gave a TGI (HT29 colon) of 9.99 µM, a TGI (NCI-H226 lung) of 19.9 µM and a TGI (RPMI-8226 leukemia) of 5.03 µM. It also gave a TGI (786-0 renal) of 6.43 µM, a TGI (OVCAR-5 ovarian) of 28.8 µM and a TGI (M14 melanoma) of 4.49 µM. The TGI (HOP-62 NSCLC) was 25.9 µM, the TGI (SNB-75 CNS) was 18.4 µM and the TGI (HS 578T breast) was 8.96 µM. For the same compound, the TGI (EKVX NSCLC) was 15.8 µM, the TGI (MOLT-4 leukemia) was over 21.5 µM and the TGI (BT-549 breast) was 29.7 µM. It also gave a TGI (HCT-15 colon) of 10.7 µM, a TGI (PC-3 prostate) of 12.8 µM and a TGI (RXF 393 renal) of 5.81 µM. For the same compound, the TGI (KM12 colon) was 11.8 µM, the TGI (TK-10 renal) was 13.7 µM and the TGI (MDA-MB-231 breast) was 11.1 µM. The TGI (MALME-3M melanoma) was 27.3 µM, the TGI (SR leukemia) was over 21.7 µM and the TGI (T-47D breast) was 12.9 µM. It also gave a TGI (UO-31 renal) of 14.3 µM, a TGI (COLO 205 colon) of 7.03 µM and a TGI (SK-MEL-28 melanoma) of 18.7 µM. For the same compound, the TGI (SK-MEL-5 melanoma) was 7.64 µM, the TGI (OVCAR-3 ovarian) was 11.8 µM and the TGI (IGROV1 ovarian) was 19.1 µM. It also gave a TGI (HCC-2998 colon) of 4.62 µM, a TGI (LOX IMVI melanoma) of 3.85 µM and a TGI (SF-295 CNS) of 19.6 µM. It also gave a TGI (SN12C renal) of 9.06 µM, a TGI (NCI-H460 lung) of 9.05 µM and a TGI (MDA-MB-435) of 8.39 µM. It also gave a TGI (SK-OV-3 ovarian) of 29.3 µM.
